Consider two compounds from patent US10668122B2, “Extract of Toona sinensis from supercritical fluid extraction for treating diabetes and metabolic disease, the preparation method and the use thereof” (Metal Industries Research & Development Centre, priority 2009, dated 2020).

One data set relates to 3T3-L1 adipocytes. Nature of the data set: In vitro model for anti-diabetic effect: 24-hour glucose consumption from culture medium of 3T3-L1 adipocytes. It counts as cell-based. To be noted: starting glucose 300 mg/dL. The protocol: Adipose tissue is one of the major sites of postprandial glucose uptake (Watson et al., 2007). To speed up the screening of novel anti-diabetic candidate materials from natural products, an in vitro model was established by comparing the 24-hour glucose consumption from the culture medium of 3T3-L1 adipocytes.
The same amount (5×10^5 cells) of 3T3-L1 preadipocytes (BCRC #60159; Bioresource Collection and Research Center, Taiwan) was seeded and cultured in normal glucose (100 mg/dL) DMEM supplemented with 10% FBS, 100 U/mL of penicillin, and 100 μg/mL of streptomycin in a humidified atmosphere of 95% air and 5% CO2 at 37° C. When the cell density reached 100% confluence, 3T3-L1 preadipocytes were induced to differentiate by treating the culture with 450 mg/dL D-glucose, 0.32 μM insulin, 0.5 mM 3-isobutyl-1-methylxanthine and 1 μM dexamethasone for two days. Then, the culture medium of the differentiated adipocytes was changed to DMEM containing 300 mg/dL D-glucose with or without the administration of TSL extracts. After 24 hours, the anti-diabetic activity was determined by measuring the medium glucose concentration using a Roche Cobas Integra 400 Chemistry Analyzer (Roche Diagnostics, Taipei, Taiwan). The coefficient of variation (CV) of the analyzer was 0.62-0.92% within-run and 1.1-1.2% between days. To confirm whether the in vitro model was sufficient to measure the glucose-lowering effect, insulin and rosiglitazone were used as positive controls.
The methods of in vitro model for determination of anti-diabetic effect are the same as the contents described in EXAMPLE 3. To obtain the high to mid-high polar components of TSL, three different extraction methods were used to produce the following extracts, which were previously reported (Liao et al., 2007; Hsieh et al., 2005; Yang et al., 2003). TSLs were (i) extracted by reverse-osmosis of water (1:4 w/v) by boiling for 30 min and then cooling down without further boiling for two hours at room temperature (Liao et al., 2007); (ii) extracted by soaking in 100° C. boiled water (1:10 w/v) three times, each time for 30 min (Hsieh et al., 2005); and (iii) extracted by boiling in 50% v/v alcohol/water for three hours (Yang et al., 2003). Next, the leaves were removed and the remaining liquids were filtered through filter paper (Advantec, Tokyo, Japan). Afterward, the filtrated solutions were concentrated using an evaporator (rotary vacuum evaporator, vv2000; Heidolph, Schwabach, Germany) under reduced pressure and three crude extracts were obtained, which were named TS-WB (i), TS-WS (ii), and TS-E (iii); the yield of each extract was 6.03%, 5.13%, and 8.36%, respectively.

Data set [1] relates to type 2 diabetic mouse model. Put plainly: Anti-diabetic effect in vivo, type 2 diabetic mouse model (high-fat diet plus STZ injection). More on the design: species or system C57BL/6J mice. Conditions: DM + rosiglitazone 150 μg/kg/day, mean ± SD. The protocol: Eight-week-old male C57BL/6J mice were obtained from BioLASCO Technology (Charles River Taiwan Ltd.). All of the mice received standard animal care under supervision of the Institutional Animal Care and Use Committee of Kaohsiung Medical University, Taiwan. The mice were caged in an air-conditioned animal facility at 23° C. on a 12-h light/dark cycle and were maintained with free access to water and food. Animals were fed either a normal chow diet consisting (as a percentage of total kcal) of 11% fat, 65% carbohydrate, and 24% protein (Maintenance diet 1320, Altromin Spezialfutter GmbH & Co. KG, Germany) or a high-fat diet consisting of 45% fat, 35% carbohydrate, and 20% protein (D12451, Research Diets, Inc., New Brunswick, N.J., USA). After two weeks on either diet, mice were divided into four groups: (i) control (n=7); (ii) high-fat-diet mice with STZ injection (DM; n=5); (iii) high-fat-diet mice with STZ injection plus TS-SCF treatment (DM+TS-SCF; n=6); and (iv) high-fat-diet mice with STZ injection plus rosiglitazone treatment (DM+Rosig; n=4). The mice in groups ii-iv were injected with STZ (45 mg/kg), and both STZ-injected and non-injected animals were kept on their original diets (chow or high-fat) for the duration of the study. TS-SCF (150 mg/kg/day) and rosiglitazone (150 μg/kg/day) treatments via gastric gavage were begun two days after the STZ injection.
Throughout the experiment, body weight and blood glucose from the tail tip were monitored weekly. Blood glucose was detected by the ACCU-CHEK blood glucose meter (Roche Diagnostics, Taipei, Taiwan). Animals were sacrificed after eight weeks of STZ injection and were euthanized by intraperitoneal injection with the anesthetic Zoletil (10 mg/kg) (Virbac, Carros, France). Blood samples were collected from the heart at the time of sacrifice for the measurement of biochemistry data using a Roche Cobas Integra 400 Chemistry Analyzer (Roche Diagnostics, Taipei, Taiwan).
Insulin from plasma were detected by ELISA kits (Crystal Chem, Inc. Downers Grove, USA). The homeostasis model assessment of insulin resistance (HOMA-IR) was calculated using the following formula: fasting blood glucose (mg/dL)×fasting insulin (μU/mL)/405.

[2] abbreviates: insulin 3.2×10^−7 to 3.2×10^−5 M.

Marks after values point to notes of the source that are not given here.

With `CN(CCOc1ccc(CC2SC(=O)NC2=O)cc1)c1ccccn1` (centres unmarked) [rosiglitazone], in the data set with 3T3-L1 adipocytes (rosiglitazone 12.5 to 50 μg/mL), the “decrease of the glucose concentration in the media” value is 50 to 80 mg/dL and the “percentage of glucose consumption” value was 16-27%. Moreover, the Fasting glucose in data set [1] (at sacrifice eight weeks after STZ) is on record as 205.00 ± 84.87^b mg/dL. In addition, in data set [1], the Body weight gain turned out to be 8.10 ± 1.95 g, the HDL-C turned out to be 126.03 ± 32.17 mg/dL, the HOMA-IR is 14.29 ± 4.60^b and the “Insulin (fasting plasma)” value is on record as 0.98 ± 0.77 ng/mL. Moreover, in data set [1], the LDL-C was 9.81 ± 8.29 mg/dL, the “T-CHO (total cholesterol)” value is on record as 137.65 ± 32.62 mg/dL and the “Triglycerol (plasma)” value is given as 64.94 ± 4.82^d mg/dL. Moreover, in data set [1] (plasma), the ALT was 62.00 ± 27.00 U/L and the Creatinine is 0.54 ± 0.18^e mg/dL.

Consider insulin, for which, in the data set on 3T3-L1 adipocytes (setting [2]), the “decrease of the glucose concentration in the media” value was 46 to 57 mg/dL and the “percentage of glucose consumption” value is given as 15-18%.
